In the supplement of paper PMC12463676, “Small-molecule dissolution of stress granules by redox modulation benefits ALS models” (Nature Chemical Biology, 2025):

Key:
lipoamide = compound: NC(=O)CCCCC1CCSS1 [lipoamide]; experiment: thermal stability z-score vs DMSO; higher = more thermally stabilized by treatment; conditions: HeLa, lipoamide concentration 100 µM
Description: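 Cellular thermal proteome profiling in HeLa cells. Cells were treated with 100 µM lipoamide for 1 h, with or without 1 mM arsenate for a further 1 h, then heated to ten temperatures (37-66.3 °C), and soluble protein was quantified by TMT mass spectrometry relative to 0.1% DMSO controls. The thermal stability score (sum of log2 fold changes minus the abundance score) was transformed to a z-score; mean of n = 3 experiments.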

potassium arsenate = compound: O=[As]([O-])(O)O.[K+] [potassium arsenate]; experiment: as above; conditions: HeLa; arsenate concentration 1 mM
Description: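 Cellular thermal proteome profiling in HeLa cells treated with 1 mM arsenate for 1 h (DMSO pretreatment), heated to ten temperatures (37-66.3 °C). Soluble protein was quantified by TMT mass spectrometry relative to DMSO controls; the thermal stability score was transformed to a z-score; mean of n = 3 experiments.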

[1] = arsenate co-treatment: 1 mM arsenate 1 h
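Note: each temperature applied for 3 min, abundance score taken as mean log2 fold change at the two lowest temperatures, z-score obtained by mean subtraction and division by SD.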

Sequence of UniProt Q92685 (Q92685 whole entry): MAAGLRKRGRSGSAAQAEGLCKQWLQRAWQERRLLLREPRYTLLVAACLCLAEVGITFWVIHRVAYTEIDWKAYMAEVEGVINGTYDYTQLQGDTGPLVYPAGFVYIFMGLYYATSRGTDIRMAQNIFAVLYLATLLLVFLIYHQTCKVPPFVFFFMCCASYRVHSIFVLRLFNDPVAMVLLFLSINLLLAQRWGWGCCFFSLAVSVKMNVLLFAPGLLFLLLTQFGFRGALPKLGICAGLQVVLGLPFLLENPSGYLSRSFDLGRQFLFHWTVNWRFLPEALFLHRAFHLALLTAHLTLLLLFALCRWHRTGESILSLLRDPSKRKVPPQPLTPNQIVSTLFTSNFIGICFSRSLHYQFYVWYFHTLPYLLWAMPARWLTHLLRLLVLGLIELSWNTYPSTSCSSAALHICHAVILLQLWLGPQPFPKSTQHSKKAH
Sequence of UniProt Q9NXW9 (Q9NXW9 whole entry): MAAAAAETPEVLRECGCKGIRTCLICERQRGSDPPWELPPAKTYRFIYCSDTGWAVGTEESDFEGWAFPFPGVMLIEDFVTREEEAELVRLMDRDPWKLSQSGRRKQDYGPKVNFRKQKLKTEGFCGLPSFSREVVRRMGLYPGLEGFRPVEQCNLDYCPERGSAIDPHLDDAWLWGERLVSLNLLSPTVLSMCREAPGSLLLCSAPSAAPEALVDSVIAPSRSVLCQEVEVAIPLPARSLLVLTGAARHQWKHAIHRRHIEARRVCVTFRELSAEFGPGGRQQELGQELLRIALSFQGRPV
Sequence of UniProt P30837 (P30837 whole entry): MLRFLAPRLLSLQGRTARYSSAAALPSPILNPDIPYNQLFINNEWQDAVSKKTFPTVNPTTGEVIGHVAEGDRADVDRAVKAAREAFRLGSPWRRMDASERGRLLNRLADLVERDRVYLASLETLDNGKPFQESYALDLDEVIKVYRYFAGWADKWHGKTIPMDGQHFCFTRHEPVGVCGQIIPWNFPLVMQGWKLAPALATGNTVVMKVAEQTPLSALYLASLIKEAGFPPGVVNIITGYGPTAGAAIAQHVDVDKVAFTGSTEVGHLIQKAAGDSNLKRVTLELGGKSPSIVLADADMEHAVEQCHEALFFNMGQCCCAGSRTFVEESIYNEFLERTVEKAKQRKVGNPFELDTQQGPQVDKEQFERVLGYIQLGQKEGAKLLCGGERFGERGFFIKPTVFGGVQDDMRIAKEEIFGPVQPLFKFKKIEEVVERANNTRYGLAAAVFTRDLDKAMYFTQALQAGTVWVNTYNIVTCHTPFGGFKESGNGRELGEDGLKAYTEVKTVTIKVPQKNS
Sequence of UniProt Q3SY69 (Q3SY69 whole entry): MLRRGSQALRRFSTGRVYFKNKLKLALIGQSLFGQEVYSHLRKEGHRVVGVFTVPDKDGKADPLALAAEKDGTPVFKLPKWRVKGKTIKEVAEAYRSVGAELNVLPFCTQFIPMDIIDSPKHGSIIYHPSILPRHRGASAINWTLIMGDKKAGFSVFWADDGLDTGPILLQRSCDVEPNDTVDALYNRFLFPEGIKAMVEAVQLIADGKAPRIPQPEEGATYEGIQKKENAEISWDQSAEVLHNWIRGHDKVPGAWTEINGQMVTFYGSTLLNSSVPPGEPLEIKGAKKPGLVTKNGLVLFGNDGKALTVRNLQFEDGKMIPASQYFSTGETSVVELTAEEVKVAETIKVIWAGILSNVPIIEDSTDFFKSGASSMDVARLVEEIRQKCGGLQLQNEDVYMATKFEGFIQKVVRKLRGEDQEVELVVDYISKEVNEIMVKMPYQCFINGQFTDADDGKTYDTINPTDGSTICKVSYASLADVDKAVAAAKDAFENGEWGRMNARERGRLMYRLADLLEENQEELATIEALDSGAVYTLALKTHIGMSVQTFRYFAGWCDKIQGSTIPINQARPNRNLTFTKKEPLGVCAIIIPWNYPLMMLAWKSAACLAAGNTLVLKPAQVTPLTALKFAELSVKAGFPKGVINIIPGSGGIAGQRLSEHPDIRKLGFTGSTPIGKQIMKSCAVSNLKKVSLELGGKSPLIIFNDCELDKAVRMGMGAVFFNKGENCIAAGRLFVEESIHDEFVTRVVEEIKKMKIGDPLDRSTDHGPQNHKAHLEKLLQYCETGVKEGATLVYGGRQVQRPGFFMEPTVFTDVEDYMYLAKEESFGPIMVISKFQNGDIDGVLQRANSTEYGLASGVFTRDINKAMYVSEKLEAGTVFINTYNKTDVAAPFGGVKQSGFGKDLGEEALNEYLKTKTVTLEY
Sequence of UniProt Q9NP73 (Q9NP73 whole entry): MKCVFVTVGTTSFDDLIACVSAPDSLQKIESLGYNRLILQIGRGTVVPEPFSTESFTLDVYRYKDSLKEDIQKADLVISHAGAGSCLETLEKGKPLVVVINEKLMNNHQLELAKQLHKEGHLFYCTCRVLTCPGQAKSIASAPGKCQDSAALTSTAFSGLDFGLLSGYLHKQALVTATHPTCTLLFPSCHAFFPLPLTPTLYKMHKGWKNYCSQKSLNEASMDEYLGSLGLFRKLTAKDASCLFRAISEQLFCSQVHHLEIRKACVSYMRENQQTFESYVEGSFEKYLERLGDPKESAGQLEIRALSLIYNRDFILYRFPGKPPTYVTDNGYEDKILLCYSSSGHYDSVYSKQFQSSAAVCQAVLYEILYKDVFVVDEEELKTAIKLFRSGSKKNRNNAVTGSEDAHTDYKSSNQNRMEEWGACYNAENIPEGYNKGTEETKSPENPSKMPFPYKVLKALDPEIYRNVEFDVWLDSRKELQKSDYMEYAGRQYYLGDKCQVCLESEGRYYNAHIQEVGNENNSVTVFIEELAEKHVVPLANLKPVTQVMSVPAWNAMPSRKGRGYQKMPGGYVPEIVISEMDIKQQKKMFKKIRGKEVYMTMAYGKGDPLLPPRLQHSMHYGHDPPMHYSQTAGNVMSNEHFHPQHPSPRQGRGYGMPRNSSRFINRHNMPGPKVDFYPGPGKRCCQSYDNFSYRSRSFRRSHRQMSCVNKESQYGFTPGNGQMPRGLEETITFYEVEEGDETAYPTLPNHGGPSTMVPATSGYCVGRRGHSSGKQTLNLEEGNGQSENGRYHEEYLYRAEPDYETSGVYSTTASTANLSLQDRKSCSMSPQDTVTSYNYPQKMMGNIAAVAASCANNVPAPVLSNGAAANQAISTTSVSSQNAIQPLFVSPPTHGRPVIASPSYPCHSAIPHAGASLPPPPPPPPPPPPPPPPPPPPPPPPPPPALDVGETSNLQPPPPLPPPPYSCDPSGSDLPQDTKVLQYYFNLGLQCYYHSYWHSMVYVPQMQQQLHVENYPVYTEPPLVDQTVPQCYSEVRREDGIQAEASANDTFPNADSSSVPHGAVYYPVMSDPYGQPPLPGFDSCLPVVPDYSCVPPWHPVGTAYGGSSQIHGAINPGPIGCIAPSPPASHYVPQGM
Sequence of UniProt O43572 (O43572 whole entry): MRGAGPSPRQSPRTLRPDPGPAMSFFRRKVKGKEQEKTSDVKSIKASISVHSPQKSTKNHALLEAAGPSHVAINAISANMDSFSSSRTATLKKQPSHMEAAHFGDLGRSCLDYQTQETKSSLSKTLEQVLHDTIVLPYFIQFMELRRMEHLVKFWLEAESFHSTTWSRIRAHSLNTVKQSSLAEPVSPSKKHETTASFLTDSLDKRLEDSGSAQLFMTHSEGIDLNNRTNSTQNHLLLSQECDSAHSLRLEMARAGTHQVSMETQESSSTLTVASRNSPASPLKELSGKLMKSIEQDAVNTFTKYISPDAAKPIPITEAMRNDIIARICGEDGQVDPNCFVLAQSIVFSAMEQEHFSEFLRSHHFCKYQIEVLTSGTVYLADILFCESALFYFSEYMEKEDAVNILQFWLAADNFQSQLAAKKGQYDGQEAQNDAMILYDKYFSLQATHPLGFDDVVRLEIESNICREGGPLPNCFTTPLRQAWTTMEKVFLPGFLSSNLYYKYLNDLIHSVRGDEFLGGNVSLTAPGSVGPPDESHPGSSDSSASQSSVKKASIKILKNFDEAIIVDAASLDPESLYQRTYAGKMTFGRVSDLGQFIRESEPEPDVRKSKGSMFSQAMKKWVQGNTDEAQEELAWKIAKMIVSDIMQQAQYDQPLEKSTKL
Sequence of UniProt P31749 (P31749 whole entry): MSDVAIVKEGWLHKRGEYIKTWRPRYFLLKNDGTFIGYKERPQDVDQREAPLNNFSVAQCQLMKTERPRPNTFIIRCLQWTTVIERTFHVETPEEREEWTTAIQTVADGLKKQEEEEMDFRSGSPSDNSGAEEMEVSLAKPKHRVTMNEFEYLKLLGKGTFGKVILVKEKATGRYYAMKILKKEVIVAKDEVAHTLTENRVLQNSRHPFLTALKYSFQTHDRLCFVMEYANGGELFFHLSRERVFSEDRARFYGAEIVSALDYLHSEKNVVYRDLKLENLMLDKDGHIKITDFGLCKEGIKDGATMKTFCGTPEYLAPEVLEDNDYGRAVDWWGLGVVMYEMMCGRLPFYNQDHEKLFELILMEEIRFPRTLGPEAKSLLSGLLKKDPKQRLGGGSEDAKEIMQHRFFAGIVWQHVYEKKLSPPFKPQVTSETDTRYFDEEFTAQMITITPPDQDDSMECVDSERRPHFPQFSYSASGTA
Sequence of UniProt P49189 (P49189 whole entry): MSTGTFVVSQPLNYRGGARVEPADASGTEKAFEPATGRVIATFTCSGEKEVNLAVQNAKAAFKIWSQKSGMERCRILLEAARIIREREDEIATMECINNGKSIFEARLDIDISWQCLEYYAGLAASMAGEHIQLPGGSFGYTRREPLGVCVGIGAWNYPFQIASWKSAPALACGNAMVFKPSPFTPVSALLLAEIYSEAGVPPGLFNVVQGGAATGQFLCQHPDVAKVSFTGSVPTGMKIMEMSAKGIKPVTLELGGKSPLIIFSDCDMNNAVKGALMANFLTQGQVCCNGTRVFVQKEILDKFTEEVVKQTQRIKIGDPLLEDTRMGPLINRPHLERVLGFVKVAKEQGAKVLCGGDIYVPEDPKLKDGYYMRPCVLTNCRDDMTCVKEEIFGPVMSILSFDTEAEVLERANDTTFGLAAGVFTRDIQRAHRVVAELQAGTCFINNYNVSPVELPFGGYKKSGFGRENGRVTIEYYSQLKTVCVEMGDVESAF

Target	thermal stability z-score (lipoamide; [1])	thermal stability z-score (lipoamide; arsenate co-treatment: none)	thermal stability z-score (potassium arsenate)
AIM1	-0.151	-0.209	0.00488
AIMP1 (UniProt Q12904)	0.288	0.163	0.717
AIMP2 (UniProt Q13155)	-0.616	-0.263	0.702
AIP (UniProt O00170)	-0.0398	-0.833	-2.08
AJUBA (UniProt Q96IF1)	-0.32	-0.207	-0.562
AK1 (UniProt P00568)	-0.242	0.28	-0.267
AK2 (UniProt P54819)	-0.717	-0.168	-0.84
AK3 (UniProt Q9UIJ7)	-0.869	-1	-1.11
AK4 (UniProt P27144)	0.119	0.256	-0.724
AK6 (UniProt Q9Y3D8)	-0.665	-0.877	-2.09
AKAP1 (UniProt Q92667)	0.866	0.652	0.73
AKAP2	1.28	0.638	-0.839
AKAP8 (UniProt O43823)	0.701	-0.426	-0.946
AKAP8L (UniProt Q9ULX6)	0.0418	-0.0231	-0.163
AKAP9 (UniProt Q99996)	0.757	1.46	1.18
AKAP10 (UniProt O43572)	-0.128	-0.105	-0.229
AKAP11 (UniProt Q9UKA4)	0.0955	0.0515	-0.0869
AKAP13 (UniProt Q12802)	-0.125	-0.1	0.667
AKIRIN2 (UniProt Q53H80)	0.0163	-0.00376	0.307
AKR1A1 (UniProt P14550)	0.441	-0.302	-0.0811
AKR1B1 (UniProt P15121)	0.596	0.698	1.19
AKR7A2 (UniProt O43488)	0.2	-0.0291	0.581
AKT1 (UniProt P31749)	-0.698	-0.638	-1.01
AKT1S1 (UniProt Q96B36)	-0.0956	-0.229	-0.504
AKT2 (UniProt P31751)	0.466	-0.00865	-0.0952
ALAD (UniProt P13716)	0.313	0.885	0.112
ALAS1 (UniProt P13196)	0.0114	-0.0767	-0.0697
ALCAM (UniProt Q13740)	0.558	0.931	0.534

Target	thermal stability z-score (lipoamide; [1])	thermal stability z-score (lipoamide; arsenate co-treatment: none)	thermal stability z-score (potassium arsenate)
ALDH1A3 (UniProt P47895)	0.622	0.25	-0.284
ALDH1B1 (UniProt P30837)	1.12	0.881	-1.44
ALDH1L2 (UniProt Q3SY69)	-0.223	0.327	0.559
ALDH3A2 (UniProt P51648)	1.63	1.32	0.0815
ALDH3B1 (UniProt P43353)	-0.215	0.338	1.26
ALDH4A1 (UniProt P30038)	-0.59	-0.14	1.19
ALDH5A1 (UniProt P51649)	0.0808	-0.136	0.302
ALDH6A1 (UniProt Q02252)	-0.315	0.458	4.94
ALDH7A1 (UniProt P49419)	1.36	0.584	0.994
ALDH9A1 (UniProt P49189)	-0.257	-0.212	-1.15
ALDH16A1 (UniProt Q8IZ83)	-0.127	-0.311	-0.784
ALDH18A1 (UniProt P54886)	-0.0576	0.0663	-1.34
ALDOA (UniProt P04075)	0.281	0.0525	-0.488
ALDOC (UniProt P09972)	-0.284	-0.526	-0.67
ALG1 (UniProt Q9BT22)	-0.337	0.0286	0.115
ALG2 (UniProt Q9H553)	-1.02	-1.3	-0.992
ALG3 (UniProt Q92685)	-0.0793	-0.236	0.141
ALG5 (UniProt Q9Y673)	0.39	-0.1	0.347
ALG6 (UniProt Q9Y672)	0.3	0.171	-0.233
ALG8 (UniProt Q9BVK2)	0.425	-0.262	0.491
ALG10|ALG10B	0.489	-0.122	-0.0103
ALG11 (UniProt Q2TAA5)	0.266	-0.15	0.806
ALG13 (UniProt Q9NP73)	0.336	0.571	-0.739
ALG14 (UniProt Q96F25)	-0.0836	-0.394	-0.257
ALKBH1 (UniProt Q13686)	0.0966	0.171	0.295
ALKBH2 (UniProt Q6NS38)	0.407	0.149	1.45
ALKBH4 (UniProt Q9NXW9)	0.0364	0.0782	-0.163
